Experimental data reported in BindingDB's records for doi:10.1021/jm060133g (Pfizer, 2006).
pIC50: −log10 of the molar value.

Columns and labels:
[1] = target: Neprilysin (Canis familiaris); assay: Inhibition of dog NEP

CCc1nnc(NC(=O)C2(CCC(=O)O)CCCC2)s1 [3-(1-((5-ethyl-1,3,4-thiadiazol-2-yl)carbamoyl)cyclopentyl)propanoic acid]
pIC50 (Inhibition of dog ACE): < 5.52 | pIC50 [1]: 6.63

CCCC(CC1(c2nnc(-c3ccc(=O)n(Cc4ccccc4)c3)o2)CCCC1)C(=O)O (stereo not given) [2-((1-(5-(1-benzyl-6-oxo-1,6-dihydropyridin-3-yl)-1,3,4-oxadiazol-2-yl)cyclopentyl)methyl)pentanoic acid]
pIC50 (Inhibition of dog ACE): < 5.52 | pIC50 [1]: 5.94

CCCC(CC1(C(=O)N[C@H](C)c2ccccc2)CCCC1)C(=O)O (stereo partly drawn) [2-((1-(((R)-1-phenylethyl)carbamoyl)cyclopentyl)methyl)pentanoic acid]
pIC50 (Inhibition of dog ACE): < 5.52

CCCC(CC1(C(=O)Nc2cc(Cc3ccccc3)ccn2)CCCC1)C(=O)O (stereo not given) [2-((1-((4-benzylpyridin-2-yl)carbamoyl)cyclopentyl)methyl)pentanoic acid]
pIC50 (Inhibition of dog ACE): < 5.52 | pIC50 [1]: 7.02

CCCCc1ccnc(NC(=O)C2(CC(CCC)C(=O)O)CCCC2)c1 (stereo not given) [2-((1-((4-butylpyridin-2-yl)carbamoyl)cyclopentyl)methyl)pentanoic acid]
pIC50 (Inhibition of dog ACE): < 5.52 | pIC50 [1]: 6.74

CCC[C@@H](CC1(C(=O)Nc2nnc(CC)s2)CCCC1)C(=O)O [(S)-2-((1-((5-ethyl-1,3,4-thiadiazol-2-yl)carbamoyl)cyclopentyl)methyl)pentanoic acid]
pIC50 (Inhibition of dog ACE): < 5.52

CCCC(CC1(C(=O)N[C@@H]2CC[C@H](C(N)=O)C2)CCCC1)C(=O)O (stereo partly drawn) [2-((1-(((1R,3S)-3-carbamoylcyclopentyl)carbamoyl)cyclopentyl)methyl)pentanoic acid]
pIC50 (Inhibition of dog ACE): < 5.52 | pIC50 [1]: 6.67

CCC[C@H](CC1(C(=O)Nc2nnc(C)s2)CCCC1)C(=O)O [(R)-2-((1-((5-methyl-1,3,4-thiadiazol-2-yl)carbamoyl)cyclopentyl)methyl)pentanoic acid]
pIC50 (Inhibition of dog ACE): < 5.52

CCCC(CC1(c2nnc(Cc3ccccc3)o2)CCCC1)C(=O)O (stereo not given) [2-((1-(5-benzyl-1,3,4-oxadiazol-2-yl)cyclopentyl)methyl)pentanoic acid]
pIC50 (Inhibition of dog ACE): < 5.52 | pIC50 [1]: 5.51

CCCC(CC1(C(=O)Nc2nnc(Cc3ccccc3)s2)CCCC1)C(=O)O (stereo not given) [2-((1-((5-benzyl-1,3,4-thiadiazol-2-yl)carbamoyl)cyclopentyl)methyl)pentanoic acid]
pIC50 (Inhibition of dog ACE): < 5.52

CCCC(CC1(C(=O)Nc2cn(CC)nn2)CCCC1)C(=O)O (stereo not given) [2-((1-((1-ethyl-1H-1,2,3-triazol-4-yl)carbamoyl)cyclopentyl)methyl)pentanoic acid]
pIC50 (Inhibition of dog ACE): < 5.52

CCCC(CC1(C(=O)N[C@H]2CC[C@@H](C(=O)N(C)C)CC2)CCCC1)C(=O)O (stereo partly drawn) [cis-2-((1-((4-(dimethylcarbamoyl)cyclohexyl)carbamoyl)cyclopentyl)methyl)pentanoic acid]
pIC50 (Inhibition of dog ACE): < 5.52

CCCC(CC1(C(=O)NCc2ccc3c(c2)OCO3)CCCC1)C(=O)O (stereo not given) [2-((1-((benzo[d][1,3]dioxol-5-ylmethyl)carbamoyl)cyclopentyl)methyl)pentanoic acid]
pIC50 (Inhibition of dog ACE): < 5.52

CCc1nnc(NC(=O)C2(CC(CCc3ccccc3)C(=O)O)CCCC2)s1 (stereo not given) [2-((1-((5-ethyl-1,3,4-thiadiazol-2-yl)carbamoyl)cyclopentyl)methyl)-4-phenylbutanoic acid]
pIC50 (Inhibition of dog ACE): < 5.52 | pIC50 [1]: 7.34

CCCC(CC1(C(=O)N[C@@H]2CCCC[C@@H]2Cc2ccccc2)CCCC1)C(=O)O (stereo partly drawn) [2-((1-(((1R,2R)-2-benzylcyclohexyl)carbamoyl)cyclopentyl)methyl)pentanoic acid]
pIC50 (Inhibition of dog ACE): < 5.52 | pIC50 [1]: 6.71

CCC[C@H](CC1(C(=O)Nc2nnc(CC)s2)CCCC1)C(=O)O [(R)-2-((1-((5-ethyl-1,3,4-thiadiazol-2-yl)carbamoyl)cyclopentyl)methyl)pentanoic acid]
pIC50 (Inhibition of dog ACE): < 5.52

CCCC(CC1(C(=O)N[C@H](CO)Cc2ccccc2)CCCC1)C(=O)O (stereo partly drawn) [2-((1-(((S)-1-hydroxy-3-phenylpropan-2-yl)carbamoyl)cyclopentyl)methyl)pentanoic acid]
pIC50 (Inhibition of dog ACE): < 5.52 | pIC50 [1]: 6.42

CCc1nnc(NC(=O)C2(CC(CCC(C)C)C(=O)O)CCCC2)s1 (stereo not given) [2-((1-((5-ethyl-1,3,4-thiadiazol-2-yl)carbamoyl)cyclopentyl)methyl)-5-methylhexanoic acid]
pIC50 (Inhibition of dog ACE): < 5.52

CCCC(CC1(C(=O)N[C@H]2CC[C@@H](C(N)=O)CC2)CCCC1)C(=O)O (stereo partly drawn) [cis-2-((1-((4-carbamoylcyclohexyl)carbamoyl)cyclopentyl)methyl)pentanoic acid]
pIC50 (Inhibition of dog ACE): < 5.52 | pIC50 [1]: 6.82

CCCC(CC1(C(=O)N[C@@H]2CCN(Cc3ccccc3)C2)CCCC1)C(=O)O (stereo partly drawn) [2-((1-(((R)-1-benzylpyrrolidin-3-yl)carbamoyl)cyclopentyl)methyl)pentanoic acid]
pIC50 (Inhibition of dog ACE): < 5.52 | pIC50 [1]: 5.97

CCCC(CC1(NC(=O)c2ccc(=O)n(Cc3ccccc3)c2)CCCC1)C(=O)O (stereo not given) [2-((1-(1-benzyl-2-oxo-1,2-dihydropyridine-5-carboxamido)cyclopentyl)methyl)pentanoic acid]
pIC50 [1]: < 5.52

CCCC(CC1(C(=O)Nc2nnc(-c3ccccc3)s2)CCCC1)C(=O)O (stereo not given) [2-((1-((5-phenyl-1,3,4-thiadiazol-2-yl)carbamoyl)cyclopentyl)methyl)pentanoic acid]
pIC50 (Inhibition of dog ACE): < 5.52

CCCC(CC1(C(=O)NCc2nnc(C)s2)CCCC1)C(=O)O (stereo not given) [2-((1-(((5-methyl-1,3,4-thiadiazol-2-yl)methyl)carbamoyl)cyclopentyl)methyl)pentanoic acid]
pIC50 (Inhibition of dog ACE): < 5.52

CCCC(CC1(C(=O)NCCc2ccc(Cl)cc2)CCCC1)C(=O)O (stereo not given) [2-((1-((4-chlorophenethyl)carbamoyl)cyclopentyl)methyl)pentanoic acid]
pIC50 [1]: < 5.70

CCCNc1ccnc(NC(=O)C2(CC(CCC)C(=O)O)CCCC2)n1 (stereo not given) [2-((1-((4-(propylamino)pyrimidin-2-yl)carbamoyl)cyclopentyl)methyl)pentanoic acid]
pIC50 (Inhibition of dog ACE): < 5.52 | pIC50 [1]: < 5.70

CCCC(CC1(C(=O)Nc2ncccc2CC)CCCC1)C(=O)O (stereo not given) [2-((1-((3-ethylpyridin-2-yl)carbamoyl)cyclopentyl)methyl)pentanoic acid]
pIC50 [1]: 5.77

CCC[C@@H](CC1(C(=O)NC2(CO)Cc3ccccc3C2)CCCC1)C(=O)O [(S)-2-((1-((2-(hydroxymethyl)-2,3-dihydro-1H-inden-2-yl)carbamoyl)cyclopentyl)methyl)pentanoic acid]
pIC50 (Inhibition of dog ACE): < 5.52

CCC[C@@H](CC1(C(=O)Nc2nnc(C)s2)CCCC1)C(=O)O [(S)-2-((1-((5-methyl-1,3,4-thiadiazol-2-yl)carbamoyl)cyclopentyl)methyl)pentanoic acid]
pIC50 (Inhibition of dog ACE): < 5.30

CCCC(CC1(C(=O)NC2(CO)CCCC2)CCCC1)C(=O)O (stereo not given) [2-((1-((1-(hydroxymethyl)cyclopentyl)carbamoyl)cyclopentyl)methyl)pentanoic acid]
pIC50 (Inhibition of dog ACE): < 5.52 | pIC50 [1]: 5.77

CCCC(CC1(C(=O)NC2CCCC(C(=O)N(C)C)C2)CCCC1)C(=O)O (stereo not given) [2-((1-((3-(dimethylcarbamoyl)cyclohexyl)carbamoyl)cyclopentyl)methyl)pentanoic acid]
pIC50 (Inhibition of dog ACE): < 5.52

CCCC(CC1(C(=O)NC2Cc3ccccc3C2)CCCC1)C(=O)O (stereo not given) [2-((1-((2,3-dihydro-1H-inden-2-yl)carbamoyl)cyclopentyl)methyl)pentanoic acid]
pIC50 (Inhibition of dog ACE): < 5.52

CCCC(CC1(C(=O)Nc2ccc(=O)n(Cc3ccccc3)c2)CCCC1)C(=O)O (stereo not given) [2-((1-((1-benzyl-6-oxo-1,6-dihydropyridin-3-yl)carbamoyl)cyclopentyl)methyl)pentanoic acid]
pIC50 (Inhibition of dog ACE): < 5.52 | pIC50 [1]: 6.50

CCCC(CC1(C(=O)NC2(CO)Cc3ccccc3C2)CCCC1)C(=O)O (racemic) [rac-2-((1-((2-(hydroxymethyl)-2,3-dihydro-1H-inden-2-yl)carbamoyl)cyclopentyl)methyl)pentanoic acid]
pIC50 (Inhibition of dog ACE): < 5.52

CCCC(CC1(C(=O)Nc2cc(C)ccn2)CCCC1)C(=O)O (stereo not given) [2-((1-((4-methylpyridin-2-yl)carbamoyl)cyclopentyl)methyl)pentanoic acid]
pIC50 [1]: 6.20

CCC[C@H](CC1(C(=O)NC2(CO)Cc3ccccc3C2)CCCC1)C(=O)O [(R)-2-((1-((2-(hydroxymethyl)-2,3-dihydro-1H-inden-2-yl)carbamoyl)cyclopentyl)methyl)pentanoic acid]
pIC50 (Inhibition of dog ACE): < 5.52

CCCCC(CC1(C(=O)Nc2nnc(CC)s2)CCCC1)C(=O)O (stereo not given) [2-((1-((5-ethyl-1,3,4-thiadiazol-2-yl)carbamoyl)cyclopentyl)methyl)hexanoic acid]
pIC50 (Inhibition of dog ACE): < 5.52

CCCC(CC1(C(=O)Nc2nnc(CC)s2)CCCC1)C(=O)O (racemic) [rac-2-((1-((5-ethyl-1,3,4-thiadiazol-2-yl)carbamoyl)cyclopentyl)methyl)pentanoic acid]
pIC50 (Inhibition of dog ACE): < 5.52

CCCC(CC1(C(=O)Nc2nncs2)CCCC1)C(=O)O (stereo not given) [2-((1-((1,3,4-thiadiazol-2-yl)carbamoyl)cyclopentyl)methyl)pentanoic acid]
pIC50 (Inhibition of dog ACE): < 5.52

CCCC(CC1(C(=O)Nc2cccc(CC)n2)CCCC1)C(=O)O (stereo not given) [2-((1-((6-ethylpyridin-2-yl)carbamoyl)cyclopentyl)methyl)pentanoic acid]
pIC50 [1]: < 5.70

CCCC(CC1(C(=O)Nc2nnc(CC(C)C)s2)CCCC1)C(=O)O (stereo not given) [2-((1-((5-isobutyl-1,3,4-thiadiazol-2-yl)carbamoyl)cyclopentyl)methyl)pentanoic acid]
pIC50 (Inhibition of dog ACE): < 5.52 | pIC50 [1]: 6.91

CCCC(CC1(C(=O)Nc2ccccn2)CCCC1)C(=O)O (stereo not given) [2-((1-(pyridin-2-ylcarbamoyl)cyclopentyl)methyl)pentanoic acid]
pIC50 (Inhibition of dog ACE): < 5.52

CCCC(CC1(C(=O)N[C@@H]2CCCC[C@@H]2CCC)CCCC1)C(=O)O (stereo partly drawn) [2-((1-(((1R,2S)-2-propylcyclohexyl)carbamoyl)cyclopentyl)methyl)pentanoic acid]
pIC50 (Inhibition of dog ACE): < 5.52

CCCC(CC1(C(=O)Nc2nnc(CC3CC3)s2)CCCC1)C(=O)O (stereo not given) [2-((1-((5-(cyclopropylmethyl)-1,3,4-thiadiazol-2-yl)carbamoyl)cyclopentyl)methyl)pentanoic acid]
pIC50 (Inhibition of dog ACE): < 5.52

CCCC(CC1(C(=O)Nc2ccc(OC)nn2)CCCC1)C(=O)O (stereo not given) [2-((1-((6-methoxypyridazin-3-yl)carbamoyl)cyclopentyl)methyl)pentanoic acid]
pIC50 (Inhibition of dog ACE): < 5.52

CCCC(CC1(C(=O)Nc2nnc(C)s2)CCCC1)C(=O)O (racemic) [rac-2-((1-((5-methyl-1,3,4-thiadiazol-2-yl)carbamoyl)cyclopentyl)methyl)pentanoic acid]
pIC50 (Inhibition of dog ACE): < 5.52
